Test results reported in patent US20090220614A1, “Thermo-Responsive Block Co-Polymers, and Use Thereof” (The Trustees of the University of Pennsylvania, priority 2005, published 2009).

Experiment: Release of doxorubicin from OPA215 vesicles, dialysis cassette in PBS, 485 nm absorption
Type: physicochemical
Conditions: 37° C., within 2 hours
Procedure: The Dox-loaded vesicles were centrifuged at 40° C. to remove excess free Dox and resuspended into a 0.320 osM PBS solution at ° C. Then, 3 ml of the aforementioned solution was injected into a dialysis cassette (molecular weight cut-off 3000 g mol^−1), and dialyzed against the PBS solution at 37° C. for 6 hours to ensure complete removal of any free Dox outside of the vesicles. After the initial aliquot was taken, the cassette was immersed in a 300 ml PBS solution at 37° and 27° C., respectively, for monitoring the 485 nm absorption peak of Dox using UV-vis spectrometry. At time intervals, a 3 ml aliquot of the PBS solution was sampled from the external solution of the dialysis cassette.
To study thermally triggered release of Dox from the OPA215 vesicles in PBS solutions, vesicles and control samples were entrapped in dialysis cassettes and sampled in external PBS solutions for the 485 nm absorption peak of Dox at different time intervals (FIG. 9).

SMILES: COc1cccc2c1C(=O)c1c(O)c3c(c(O)c1C2=O)C[C@@](O)(C(=O)CO)C[C@@H]3O[C@H]1C[C@H](N)[C@H](O)[C@H](C)O1 [free Dox, Doxorubicin]
- loss of Dox during dialysis: > 70%
